Experimental data from patent US11464796B2, “Nicotinamide mononucleotide derivatives and their uses” (Metro International Biotech, LLC, priority 2015, dated 2022).
Structures can show the parent of a compound that is named as a salt.

What was measured:
[1] = tested on: NAD+ levels in skeletal muscle; experiment: NAD+ level in skeletal muscle of mice after a single oral dose (LC/MS), ratio to vehicle control; type: in vivo; details: soleus skeletal muscle, single oral gavage in PBS, generally 500 mg/ml (in some cases 250 mg/kg or ethanol/PBS/PEG400), fasted male C57/BL6 mice; for ratio of mean NAD+ concentration in treated mice compared to vehicle control mice, 4 hr skeletal: 4 hr post-dose; for ratio of mean NAD+ concentration in treated mice compared to vehicle control mice, 8 hr skeletal: 8 hr post-dose; for ratio of mean NAD+ concentration in treated mice compared to vehicle control mice, 24 hr skeletal: 24 hr post-dose
Method: (§1) As the compounds disclosed herein can act as prodrugs for NMN, their biological activity was assessed in vivo by measuring the ability to elevate NAD+ levels in liver and skeletal muscle. These tissues were selected for pharmacodynamics studies due to their relevance for the treatment of metabolic diseases. In general, C57/BL6 mice were fasted from 16 hours, then administered a […] oral dose of a disclosed compound in PBS buffer by oral gavage. In some cases, the dose was 250 mg/kg or in an alternate vehicle: ethanol/PBS/PEG400 (10/30/60). After dosing, the mice were sacrificed at pre-set time points after dosing (generally 4, 8 and 24 hours). The liver and skeletal tissues were removed and flash frozen. After some period of frozen storage, tissue homogenates were prepared. The level of NAD+ was quantified using LC/MS methods.
(§2) For bioanalysis, a method of standard addition was used to quantify the NAD. Each homogenate was divided and certain aliquots had known concentrations of exogenous NAD added. The NAD present in the original sample was then calculated by linear regression. Data are presented as a ratio of mean NAD concentration in treated mouse tissues to mean NAD concentration in the vehicle control group tissues at the paired time points.
(§3) Mixtures of compound and PBS, pH 7 were formulated ˜1 hour before dosing and remained stirring until dose completion. Residual formulated test materials were stored at −20±5° C. until discarded. Naïve male C57/BL6 mice at ˜25 g at dose initiation, age as appropriate for weight were assigned to dose groups of six animals per dose. Dosing treatments were administered via a single oral gavage dose (PO) The dose volume for each animal (5 mL/kg) was based on the most recent body measurements taken the morning of dosing. Animals were fasted at least 16 hrs prior to dose, with food returned at least 4 hours post dose.
(§4) Liver and skeletal muscle were collected and analyzed for nicotinamide adenine dinucleotide (NAD) at 0, 4, 8, and 24 hours post-dose. For each mouse, the entire liver was removed, rinsed with saline, blotted dry and frozen at −70° C. to store for NAD concentration analysis. Also, the soleus skeletal muscle was removed from the gastrocnemius, rinsed with saline, blotted dry and frozen at −70° C. to store for NAD concentration analysis.
(§5) • 1. Add 5× (tissue wt.*5)mL 0.1M ZnSO4 into all tubes. • 2. Add 5× (tissue wt*5)mL Methanol into all tubes. • 3. Homogenize each sample until completely liquid. • 4. Vortex each sample. Tissue Extraction Procedure • 1. On ice, aliquot 20 μL of standards, control blanks, and matrix blanks into a 96-well plate. • 2. Aliquot 20 μL of sample into sample wells. • 3. Add 1004, of IS in 80:20 Methanol:water into each well, except blanks add 100 μL of blank 80:20 Methanol:Water. • 4. Cover plate and vortex samples. Centrifuge for 10 minutes at 3300 rpm. • 5. Transfer 80 μL of supernatant into a clean 96-well plate. • 6. Add 80 μL of LC-MS water to all wells. • 7. Cover and vortex. The concentration of NAD+ in the tissues was determined by LC/MS. The conditions are as follows:
(§6) The ratio of mean NAD+ concentration in the liver and skeletal tissues of treated mice compared to vehicle control mice are given in Table 5. The data is given for the 4, 8, and 24 hour time points.

NAD+ levels in liver = experiment: NAD+ level in liver of mice after a single oral dose (LC/MS), ratio to vehicle control; type: in vivo; details: single oral gavage in PBS, generally 500 mg/ml (in some cases 250 mg/kg or ethanol/PBS/PEG400), fasted male C57/BL6 mice; for ratio of mean NAD+ concentration in treated mice compared to vehicle control mice, 4 hr liver: 4 hr post-dose; for ratio of mean NAD+ concentration in treated mice compared to vehicle control mice, 8 hr liver: 8 hr post-dose; for ratio of mean NAD+ concentration in treated mice compared to vehicle control mice, 24 hr liver: 24 hr post-dose
Method: as §1, §2, §3, §4, §5, §6

`NC(=O)c1ccc[n+]([C@@H]2OC(COP3(=O)OCCC(c4cc(F)cc(F)c4)O3)[C@@H](O)[C@H]2O)c1.O=C([O-])C(F)(F)F` (stereo partly drawn) [Compound 2, 1-((2R,3R,4S)-5-(((4-(3,5-Difluorophenyl)-2-oxido-1,3,2-dioxaphosphinan-2-yl)oxy)methyl)-3,4-dihydroxytetrahydrofuran-2-yl)-1λ^4-pyridine-3-carboxamide Trifluoroacetate Salt] was tested. Which “ratio of mean NAD+ concentration in treated mice compared to vehicle control mice, 4 hr skeletal” value (“ratio … to vehicle control mice, 4 hr skeletal” below) [1] did it give?
The value was 0.9.

What about the “ratio of mean NAD+ concentration in treated mice compared to vehicle control mice, 8 hr skeletal” value (from here on “ratio of mean NAD+ concentration … 8 hr skeletal”) [1] of the same compound?
The value was 1.0.

What about the “ratio of mean NAD+ concentration in treated mice compared to vehicle control mice, 24 hr skeletal” value (“ratio … 24 hr skeletal” for short) [1] of the same compound?
Its value is 1.4.

And the “ratio of mean NAD+ concentration in treated mice compared to vehicle control mice, 4 hr liver” value (“ratio … to vehicle control mice, 4 hr liver” for short) (NAD+ levels in liver)?
The value was 2.0.

And the “ratio of mean NAD+ concentration in treated mice compared to vehicle control mice, 8 hr liver” value (“ratio of mean NAD+ concentration … 8 hr liver” below) (NAD+ levels in liver)?
The value was 1.6.

What about the “ratio of mean NAD+ concentration in treated mice compared to vehicle control mice, 24 hr liver” value (“ratio of mean NAD+ concentration … 24 hr liver” for short) (NAD+ levels in liver) of the same compound?
The value was 1.8.

How did the “ratio … to vehicle control mice, 4 hr skeletal” value [1] turn out when `CC(C)OC(=O)[C@H](C)NP(=O)(OCC1O[C@@H]([n+]2cccc(C(N)=O)c2)[C@H](O)[C@@H]1O)Oc1ccccc1` (stereo partly drawn) [Compound 4, Isopropyl ((((3S,4R,5R)-5-(3-carbamoyl-1λ4-pyridin-1-yl)-3,4-dihydroxytetrahydrofuran-2-yl)methoxy)(phenoxy)phosphoryl)-L-alaninate Trifluoroacetate Salt] was run?
Its value is 0.9.

What about the “ratio of mean NAD+ concentration … 8 hr skeletal” value [1] of the same compound?
The value was 1.4.

And the “ratio … 24 hr skeletal” value [1]?
Its value is 1.1.

What about the “ratio … to vehicle control mice, 4 hr liver” value (NAD+ levels in liver) of the same compound?
The value was 1.0.

What about the “ratio of mean NAD+ concentration … 8 hr liver” value (NAD+ levels in liver) of the same compound?
Its value is 1.7.

What about the “ratio of mean NAD+ concentration … 24 hr liver” value (NAD+ levels in liver) of the same compound?
Its value is 1.8.

With `CC(C)(C)C(=O)SCCOP(=O)(NCc1ccccc1)OCC1OC([n+]2cccc(C(N)=O)c2)C(O)C1O` (stereo not drawn) [Compound 6, 1-(5-((((Benzylamino)(2-(pivaloylthio)ethoxy)phosphoryl)oxy)methyl)-3,4-dihydroxytetrahydrofuran-2-yl)-3-carbamoylpyridin-1-ium Trifluoroacetate Salt] as the compound, how does the “ratio … to vehicle control mice, 4 hr skeletal” value [1] read?
Its value is 1.3.

What about the “ratio of mean NAD+ concentration … 8 hr skeletal” value [1] of the same compound?
The value was 1.7.

What about the “ratio … 24 hr skeletal” value [1] of the same compound?
The value was 2.6.

And the “ratio … to vehicle control mice, 4 hr liver” value (NAD+ levels in liver)?
The value was 4.3.

What about the “ratio of mean NAD+ concentration … 8 hr liver” value (NAD+ levels in liver) of the same compound?
Its value is 6.6.

What about the “ratio of mean NAD+ concentration … 24 hr liver” value (NAD+ levels in liver) of the same compound?
Its value is 3.5.

`CC(NP(=O)(OCC1O[C@@H]([n+]2cccc(C(N)=O)c2)[C@H](O)[C@@H]1O)Oc1cccc2ccccc12)C(=O)OCc1ccccc1` (stereo partly drawn) [Compound 8, 1-((2R,3R,4S)-5-(((((1-(Benzyloxy)-1-oxopropan-2-yl)amino)(naphthalen-1-yloxy)phosphoryl)oxy)methyl)-3,4-dihydroxytetrahydrofuran-2-yl)-3-carbamoylpyridin-1-ium Trifluoroacetate Salt] was tested. Which “ratio … to vehicle control mice, 4 hr skeletal” value [1] did it give?
Its value is 1.0.

And the “ratio of mean NAD+ concentration … 8 hr skeletal” value [1]?
Its value is 0.8.

What about the “ratio … 24 hr skeletal” value [1] of the same compound?
Its value is 0.8.

And the “ratio … to vehicle control mice, 4 hr liver” value (NAD+ levels in liver)?
Its value is 1.2.

What about the “ratio of mean NAD+ concentration … 8 hr liver” value (NAD+ levels in liver) of the same compound?
Its value is 1.0.

What about the “ratio of mean NAD+ concentration … 24 hr liver” value (NAD+ levels in liver) of the same compound?
Its value is 0.9.

For `CCC(CC)COC(=O)C(C)NP(=O)(OCC1O[C@@H]([n+]2cccc(C(N)=O)c2)[C@H](O)[C@@H]1O)Oc1ccccc1` (stereo partly drawn) [Compound 9, 2-Ethylbutyl ((((3S,4R,5R)-5-(3-carbamoyl-1λ^4-pyridin-1-yl)-3,4-dihydroxytetrahydrofuran-2-yl)methoxy)(phenoxy)phosphoryl)alaninate Trifluoroacetate Salt], which “ratio … to vehicle control mice, 4 hr skeletal” value [1] is on record?
The value was 1.88.

What about the “ratio of mean NAD+ concentration … 8 hr skeletal” value [1] of the same compound?
The value was 1.34.

And the “ratio … 24 hr skeletal” value [1]?
The value was 0.96.

What about the “ratio … to vehicle control mice, 4 hr liver” value (NAD+ levels in liver) of the same compound?
The value was 0.8.

And the “ratio of mean NAD+ concentration … 8 hr liver” value (NAD+ levels in liver)?
Its value is 0.8.

And the “ratio of mean NAD+ concentration … 24 hr liver” value (NAD+ levels in liver)?
Its value is 1.3.

Which “ratio … to vehicle control mice, 4 hr skeletal” value [1] does the source give for `CCOP(=O)(OCC)OCC1OC([n+]2cccc(C(N)=O)c2)C(O)C1O` (stereo not drawn) [Compound 19, 3-Carbamoyl-1-(5-(((diethoxyphosphoryl)oxy)methyl)-3,4-dihydroxytetrahydrofuran-2-yl)pyridin-1-ium Chloride] here?
The value was 0.8.

And the “ratio of mean NAD+ concentration … 8 hr skeletal” value [1]?
The value was 1.2.

What about the “ratio … 24 hr skeletal” value [1] of the same compound?
The value was 0.1.

And the “ratio … to vehicle control mice, 4 hr liver” value (NAD+ levels in liver)?
The value was 1.

What about the “ratio of mean NAD+ concentration … 8 hr liver” value (NAD+ levels in liver) of the same compound?
The value was 1.

And the “ratio of mean NAD+ concentration … 24 hr liver” value (NAD+ levels in liver)?
Its value is 1.

How did the “ratio … to vehicle control mice, 4 hr skeletal” value [1] turn out when `CCCCCCCCCCCCCCCOCCCOP(=O)(OC)OCC1OC([n+]2cccc(C(N)=O)c2)C(O)C1O` (stereo not drawn) [Compound 21, 3-Carbamoyl-1-(3,4-dihydroxy-5-(((methoxy(3-(pentadecyloxy)propoxy)phosphoryl)oxy)methyl)tetrahydrofuran-2-yl)pyridin-1-ium Trifluoroacetate Salt] was run?
Its value is 1.3.

What about the “ratio of mean NAD+ concentration … 8 hr skeletal” value [1] of the same compound?
The value was 2.4.

What about the “ratio … 24 hr skeletal” value [1] of the same compound?
The value was 3.4.

And the “ratio … to vehicle control mice, 4 hr liver” value (NAD+ levels in liver)?
The value was 2.2.

What about the “ratio of mean NAD+ concentration … 8 hr liver” value (NAD+ levels in liver) of the same compound?
Its value is 2.1.

And the “ratio of mean NAD+ concentration … 24 hr liver” value (NAD+ levels in liver)?
The value was 1.7.
